Experimental data reported in patent publication US9708311B2, “Benzimidazole derivatives as EP4 antagonists” (BAYER PHARMA AKTIENGESELLSCHAFT, priority 2012, dated 2017).

molecular target: human EP4 receptor (Homo sapiens (Human), UniProt P35408); experiment: Test for antagonism of the human EP4 receptor signal (cAMP HTRF); assay type: cell-based; settings: cells expressing hEP4, PGE2 at EC80 (0.4 nM), cAMP TR-FRET; read-out: Antagonism hEP4 IC50
From the text: The binding of the agonist prostaglandin E2 (PGE2) to the EP4 subtype of human hPGE2-R (hEP4-R) induces the activation of membrane-bound adenylate cyclases and thus the formation of cAMP. In the presence of the phosphodiesterase inhibitor IBMX, this cAMP accumulates intracellularly and is employed in a competitive detection procedure after cell lysis. In this procedure, it competes with a fluorescence-labelled cAMP (cAMP-d2) for binding to an Eu cryptate-labelled anti-cAMP antibody. In the absence of cellular cAMP, a complex is formed between the Eu cryptate-labelled anti-cAMP antibody and the cAMP-d2 molecule, which after excitation at 337 nm makes possible an energy transfer based on FRET (fluorescence resonance energy transfer) to the cAMP-d2 tracer and leads to a long-lasting fluorescence signal (emission at 665 and 620 nm). This signal is time-resolved, i.e. measured in a suitable measuring apparatus after decay of the background fluorescence (time resolved; TR-FRET). The wave ratio determination (emission 665 nm/emission 620 nm*10000) moreover makes it possible to standardize individual measurement differences in the added amounts of the detection reagents.
By means of prostaglandin E2 administration and increase in the intracellular cAMP, a lowering of the FRET signal occurs, which in the case of an antagonistic substance action increases again.
A further 20 min at room temperature later, the cell lysate is measured according to the manufacturer's instructions in a TR-FRET-suitable measuring apparatus (compare cAMP HTRF assay kit: Cisbio International 62AM6PEJ high range)

Sequence of human EP4 receptor (P35408 whole entry): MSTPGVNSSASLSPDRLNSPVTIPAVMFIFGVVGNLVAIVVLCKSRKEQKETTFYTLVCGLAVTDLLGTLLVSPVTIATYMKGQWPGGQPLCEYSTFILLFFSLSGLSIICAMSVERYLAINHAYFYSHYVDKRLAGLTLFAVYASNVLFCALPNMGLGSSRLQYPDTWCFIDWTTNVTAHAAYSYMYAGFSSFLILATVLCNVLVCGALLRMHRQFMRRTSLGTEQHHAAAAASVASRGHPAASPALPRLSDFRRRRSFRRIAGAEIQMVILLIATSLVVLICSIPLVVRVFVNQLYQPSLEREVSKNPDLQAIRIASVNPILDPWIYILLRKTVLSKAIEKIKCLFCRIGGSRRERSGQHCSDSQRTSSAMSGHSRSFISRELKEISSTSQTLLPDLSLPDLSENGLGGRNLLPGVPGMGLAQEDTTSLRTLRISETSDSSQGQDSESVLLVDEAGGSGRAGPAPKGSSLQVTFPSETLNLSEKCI

| SMILES | IC50 [nM] |
| --- | --- |
| CCn1c2ccccc2c2cc(-c3nc4cc(C(=O)NS(=O)(=O)CCc5cccc(OC)c5)ccc4n3CCOC)ccc21 [Example 69, 2-(9-Ethyl-9H-carbazol-3-yl)-1-(2-methoxyethyl)-N-{[2-(3-methoxyphenyl)ethyl]-sulphonyl}-1H-benzimidazole-5-carboxamide] | 155 |
| CCn1c2ccccc2c2cc(-c3nc4cc(C(=O)O)ccc4n3CCN3CCOCC3)ccc21 [Example 70, 2-(9-Ethyl-9H-carbazol-3-yl)-1-[2-(morpholin-4-yl)ethyl]-1H-benzimidazole-5-carboxylic acid] | 2460 |
| CCOC(=O)c1ccc2c(c1)nc(-c1ccc3c(c1)c1ccccc1n3CC)n2CCN(C)C [Example 71, Ethyl-1-[2-(dimethylamino)ethyl]-2-(9-ethyl-9H-carbazol-3-yl)-1H-benzimidazole-5-carboxylate] | 872 |
| CCn1c2ccccc2c2cc(-c3nc4cc(C(=O)NC)ccc4n3CCN(C)C)ccc21 [Example 73, 1-[2-(Dimethylamino)ethyl]-2-(9-ethyl-9H-carbazol-3-yl)-N-methyl-1H-benzimidazole-5-carboxamide] | 382 |
| CCn1c2ccccc2c2cc(-c3nc4cc(C(=O)N5CCOCC5)ccc4n3CCOC)ccc21 [Example 81, [2-(9-Ethyl-9H-carbazol-3-yl)-1-(2-methoxyethyl)-1H-benzimidazol-5-yl](morpholin-4-yl)-methanone] | 123 |
| CCn1c2ccccc2c2cc(-c3nc4cc(C(N)=O)ccc4n3CCOC)ccc21 [Example 82, 2-(9-Ethyl-9H-carbazol-3-yl)-1-(2-methoxyethyl)-1H-benzimidazole-5-carboxamide] | 134 |
| CCn1c2ccccc2c2cc(-c3nc4cc(C(=O)N(C)C)ccc4n3CCOC)ccc21 [Example 83, 2-(9-Ethyl-9H-carbazol-3-yl)-1-(2-methoxyethyl)-N,N-dimethyl-1H-benzimidazole-5-carboxamide] | 122 |
| CCn1c2ccccc2c2cc(-c3nc4cc(C(=O)N(C)S(C)(=O)=O)ccc4n3CCOC)ccc21 [Example 84, 2-(9-Ethyl-9H-carbazol-3-yl)-1-(2-methoxyethyl)-N-methyl-N-(methylsulphonyl)-1H-benzimidazole-5-carboxamide] | 143 |
| C=CCn1c(-c2ccc3c(c2)c2ccccc2n3CC)nc2cc(C(=O)N(C)C)ccc21 [Example 85, 1-Allyl-2-(9-ethyl-9H-carbazol-3-yl)-N,N-dimethyl-1H-benzimidazole-5-carboxamide] | 1860 |
| CCn1c2ccccc2c2cc(-c3nc4cc(C(=O)NCCN(C)C)ccc4n3CCOC)ccc21 [Example 86, N-[2-(Dimethylamino)ethyl]-2-(9-ethyl-9H-carbazol-3-yl)-1-(2-methoxyethyl)-1H-benzimidazole-5-carboxamide] | 245 |
| CCn1c2ccccc2c2cc(-c3nc4cc(C(=O)NCCN5CCCC5)ccc4n3CCOC)ccc21 [Example 87, 2-(9-Ethyl-9H-carbazol-3-yl)-1-(2-methoxyethyl)-N-[2-(pyrrolidin-1-yl)ethyl]-1H-benzimidazole-5-carboxamide] | 209 |
| C=CCn1c(-c2ccc3c(c2)c2ccccc2n3CC)nc2cc(C(=O)NC)ccc21 [Example 88, 1-Allyl-2-(9-ethyl-9H-carbazol-3-yl)-N-methyl-1H-benzimidazole-5-carboxamide] | 2100 |
| C=CCn1c(-c2ccc3c(c2)c2ccccc2n3CC)nc2cc(C(N)=O)ccc21 [Example 89, 1-Allyl-2-(9-ethyl-9H-carbazol-3-yl)-1H-benzimidazole-5-carboxamide] | 3640 |
| CCn1c2ccccc2c2cc(-c3nc4cc(C(=O)NC)ccc4n3C)ccc21 [Example 90, 2-(9-Ethyl-9H-carbazol-3-yl)-N,1-dimethyl-1H-benzimidazole-5-carboxamide] | 2860 |
| CCOC(=O)c1ccc2c(c1)nc(-c1ccc3c(c1)c1ccccc1n3CC)n2C(C)C [Example 92, Ethyl 2-(9-ethyl-9H-carbazol-3-yl)-1-isopropyl-1H-benzimidazole-5-carboxylate] | 8000 |
| CCn1c2ccccc2c2cc(-c3nc4cc(C(=O)O)ccc4n3C(C)C)ccc21 [Example 93, 2-(9-Ethyl-9H-carbazol-3-yl)-1-isopropyl-1H-benzimidazole-5-carboxylic acid] | 733 |
| CCn1c2ccccc2c2cc(-c3nc4cc(C(=O)O)ccc4n3C)ccc21 [Example 94, 2-(9-Ethyl-9H-carbazol-3-y1)-1-methyl-1 H-benzimidazole-5-carboxylic acid] | 195 |
| CCn1c(-c2ccc3c(c2)c2ccccc2n3CC)nc2cc(C(=O)OC)ccc21 [Example 95, Methyl 1-ethyl-2-(9-ethyl-9H-carbazol-3-yl)-1H-benzimidazole-5-carboxylate] | 1030 |
| CCOC(=O)c1ccc2c(c1)nc(-c1ccc3c(c1)c1ccccc1n3CCOC)n2CCOC [Example 97, Ethyl 1-(2-methoxyethyl)-2-[9-(2-methoxyethyl)-9H-carbazol-3-yl]-1H-benzimidazole-5-carboxylate] | 412 |

Compounds with a lower IC50, results first:

| IC50 [nM] | SMILES |
| --- | --- |
| 113 | CCn1c2ccccc2c2cc(-c3nc4cc(C(=O)O)ccc4n3CCO)ccc21 [Example 91, 2-(9-Ethyl-9H-carbazol-3-yl)-1-(2-hydroxyethyl)-1H-benzimidazole-5-carboxylic acid] |
| 112 | COCCn1c(-c2ccc3c(c2)c2ccccc2n3CCOC)nc2cc(C(=O)O)ccc21 [Example 98, 1-(2-Methoxyethyl)-2-[9-(2-methoxyethyl)-9H-carbazol-3-yl]-1H-benzimidazole-5-carboxylic acid] |
| 106 | CCn1c2ccccc2c2cc(-c3nc4cc(C(=O)NCCN5CCOCC5)ccc4n3CC3CC3)ccc21 [Example 79, 1-(Cyclopropylmethyl)-2-(9-ethyl-9H-carbazol-3-yl)-N-[2-(morpholin-4-yl)ethyl]-1H-benzimidazole-5-carboxamide] |
| 87.2 | CCn1c2ccccc2c2cc(-c3nc4cc(C(=O)NS(=O)(=O)C5CC5)ccc4n3CCN(C)C)ccc21 [Example 74, N-(Cyclopropylsulphonyl)-1-[2-(dimethylamino)ethyl]-2-(9-ethyl-9H-carbazol-3-yl)-1H-benzimidazole-5-carboxamide] |
| 82.5 | CCn1c2ccccc2c2cc(-c3nc4cc(C(=O)O)ccc4n3CCN(C)C)ccc21 [Example 72, 1-[2-(Dimethylamino)ethyl]-2-(9-ethyl-9H-carbazol-3-yl)-1H-benzimidazole-5-carboxylic acid] |
| 74.3 | CCn1c2ccccc2c2cc(-c3nc4cc(C(=O)NCCN5CCOCC5)ccc4n3CCOC)ccc21 [Example 78, 2-(9-Ethyl-9H-carbazol-3-yl)-1-(2-methoxyethyl)-N-[2-(morpholin-4-yl)ethyl]-1H-benzimidazole-5-carboxamide] |
| 68.3 | CCn1c2ccccc2c2cc(-c3nc4cc(C(=O)N5CCC5)ccc4n3CC3CC3)ccc21 [Example 80, Azetidin-1-yl[1-(cyclopropylmethyl)-2-(9-ethyl-9H-carbazol-3-yl)-1H-benzimidazol-5-yl]-methanone] |
| 49.2 | CCn1c2ccccc2c2cc(-c3nc4cc(C(=O)NCC(F)(F)F)ccc4n3CCOC)ccc21 [Example 77, 2-(9-Ethyl-9H-carbazol-3-yl)-1-(2-methoxyethyl)-N-(2,2,2-trifluoroethyl)-1H-benzimidazole-5-carboxamide] |
| 41.3 | CCn1c2ccccc2c2cc(-c3nc4cc(C(=O)N5CCCC5)ccc4n3CCOC)ccc21 [Example 76, [2-(9-Ethyl-9H-carbazol-3-yl)-1-(2-methoxyethyl)-1H-benzimidazol-5-yl](pyrrolidin-1-yl)-methanone] |
| 36.9 | CCn1c2ccccc2c2cc(-c3nc4cc(C(=O)NS(=O)(=O)Cc5c(C)cccc5Cl)ccc4n3CCOC)ccc21 [Example 67, N-[(2-Chloro-6-methylbenzyl)sulphonyl]-2-(9-ethyl-9H-carbazol-3-yl)-1-(2-methoxy-ethyl)-1H-benzimidazole-5-carboxamide] |
| 36.3 | CCn1c2ccccc2c2cc(-c3nc4cc(C(=O)NS(=O)(=O)Cc5ncccc5C)ccc4n3CCOC)ccc21 [Example 68, 2-(9-Ethyl-9H-carbazol-3-yl)-1-(2-methoxyethyl)-N-{[(3-methylpyridin-2-yl)methyl]-sulphonyl}-1H-benzimidazole-5-carboxamide] |
| 21.4 | CCn1c2ccccc2c2cc(-c3nc4cc(C(=O)NS(=O)(=O)c5ccc(C)cc5)ccc4n3CCN(C)C)ccc21 [Example 75, 1-[2-(Dimethylamino)ethyl]-2-(9-ethyl-9H-carbazol-3-yl)-N-[(4-methylphenyl)sulphonyl]-1H-benzimidazole-5-carboxamide] |
| 16.5 | C=CCn1c2ccccc2c2cc(-c3nc4cc(C(=O)O)ccc4n3CCOC)ccc21 [Example 96, 2-(9-Allyl-9H-carbazol-3-yl)-1-(2-methoxyethyl)-1H-benzimidazole-5-carboxylic acid] |
| 16.1 | CCn1c2ccccc2c2cc(-c3nc4cc(C(=O)NS(=O)(=O)CC(C)(C)C)ccc4n3CCOC)ccc21 [Example 66, N-[(2,2-Dimethylpropyl)sulphonyl]-2-(9-ethyl-9H-carbazol-3-yl)-1-(2-methoxyethyl)-1H-benzimidazole-5-carboxamide] |
